Test results reported in publication PMC12801355, “Peptide Amphiphiles Hitchhike on Endogenous Biomolecules for Enhanced Cancer Imaging and Therapy” (Advanced Materials (Deerfield Beach, Fla.), 2025).
Like-named read-outs stand apart in the source and are kept apart here. *1 amine or outer side, *2 acyl side, *3 side chain or, on linkers, in order; H or OH if unused. Where a SMILES comes first, the peptide text is derived from it. Bridges are numbered along the chain shown (N, C = ends). Roman numbers before positions name the chains, in order. [ ]: non-standard residue; d: D form. The star is where a group is joined. Hexanoyl(6-succinimido-3yl) = O=C1CC([*:1])C(=O)N1CCCCCC(=O)[*:2]; Dolaproine = CO[C@@H]([C@@H]1CCCN1)[C@@H](C)C(=O)O; Dil = CC[C@H](C)[C@H](NC)[C@@H](CC(=O)O)OC; PABC = O=C(OCc1ccc(N[*:1])cc1)[*:2]; Palmitoyl = CCCCCCCCCCCCCCCC(=O)*; X1 = C[C@@H](N*)[C@@H](O)c1ccccc1; Cit = NC(=O)NCCC[C@H](N)C(=O)O; NMeV = CN[C@H](C(=O)O)C(C)C

Tests used:
4T1 tumor = assay: Antitumor effect, 4T1 orthotopic mouse model
Method: (§1) All experiments were approved by the Oregon Health and Science University (OHSU) Institutional Animal Care and Use Committee (IACUC) (TR01_IP00000674) and conformed to the guidelines set by the United States Animal Welfare Act and the National Institutes of Health. Mice were aged between 3 and 8 months and 20–30 g in weight and were housed in specific pathogen free cages. Human, mouse, or rat cells were injected into nude (The Jackson Laboratory, 002019), NSG mice (The Jackson Laboratory, 005557), Balb/c mice (The Jackson Laboratory, 000651), or C57Bl/6J mice (The Jackson Laboratory, 000664), as specified below. Cells were injected in 100 µL sterile DMEM at a concentration of 0.5–1×10^7 cells mL^−1, unless otherwise specified. For tumor accumulation and biodistribution studies, A375 cells were injected intradermally into the left ears of NSG mice (The Jackson Laboratory, 005557). MCF7 cells were injected into the mammary fat pad of NSG mice. HCT‐116, RG2, and HeLa (wild type or LDL‐R knockout) cells were subcutaneously injected into the left or both flanks of NSG mice. 4T1 cells were injected into the mammary fat pad of Balb/c mice. LLC1, MC38, and TRAMP‐C2 (wild type or SR‐B1 knockout) were injected into C57Bl/6J mice. Patient‐derived xenografts were generated by injecting the patient‐derived cancer cells subcutaneously into the left flank of NSG mice. ApoA1 and LDL‐R knockout mice were purchased from the Jackson Laboratory (002055 and 002207, respectively). MC38 cells were subcutaneously injected into both flanks of these mice. Apc^min and MMTV‐PyMT mice were purchased from the Jackson Laboratory (002020 and 002374). For antitumor activity studies, 4T1 cells were injected into the mammary fat pad of Balb/c mice. HCT‐116 and RG2 cells were subcutaneously injected into the left flanks of nude mice. For antitumor activity studies, HCT‐116 cells were injected in a 1:1 mixture of DMEM and Matrigel (Life Science 354263).
(§2) Mice were injected with 4T1, RG2, or HCT‐116 cells as described above. Mice were then treated intravenously with the free MMAE (0.1 or 0.3 mg kg^−1), SA‐E‐MMAE (0.3, 0.6, 0.8, or 1 mg kg^−1) or PBS (10 mM, pH 7.4). 5 doses were given every 2–3 days over 11 days. […] Tumor size and mouse weight were monitored 2–3 times per week until a humane endpoint (tumor size ≈2 cm or >20% body weight loss) or the study endpoint (18, 25, or 120 days for 4T1, RG2, and HCT‐116 studies, respectively). Tumor size was measured in two directions with a caliper rounded to the nearest tenth of a mm. Volume was calculated as a basic sphere of 4/3πr^3.

HCT‐116 tumor = tested on: HCT‐116 tumor
Method: as §1, §2

RG2 xenografts = assay: Antitumor effect, RG2 xenografts in nude mice; assay type: in vivo, mouse; details: 1 mg kg^−1 IV, 5 doses
Method: All experiments were approved by the Oregon Health and Science University (OHSU) Institutional Animal Care and Use Committee (IACUC) (TR01_IP00000674) and conformed to the guidelines set by the United States Animal Welfare Act and the National Institutes of Health. Mice were aged between 3 and 8 months and 20–30 g in weight and were housed in specific pathogen free cages. Human, mouse, or rat cells were injected into nude (The Jackson Laboratory, 002019), NSG mice (The Jackson Laboratory, 005557), Balb/c mice (The Jackson Laboratory, 000651), or C57Bl/6J mice (The Jackson Laboratory, 000664), as specified below. Cells were injected in 100 µL sterile DMEM at a concentration of 0.5–1×10^7 cells mL^−1, unless otherwise specified. For tumor accumulation and biodistribution studies, A375 cells were injected intradermally into the left ears of NSG mice (The Jackson Laboratory, 005557). MCF7 cells were injected into the mammary fat pad of NSG mice. […]
as §2, with “above.” for “above. Mice were then treated intravenously with the free MMAE (0.1 or 0.3 mg kg^−1), SA‐E‐MMAE (0.3, 0.6, 0.8, or 1 mg kg^−1) or PBS (10 mM, pH 7.4). 5 doses were given every 2–3 days over 11 days.”

[1] = tested on: LPs (HDL, LDL, VLDL) and albumin in pooled human plasma; assay: FPLC of PAs in 10% human plasma; details: MMAE conjugated SA‐E, 250 µM, detection at 250 nm
Method: FPLC experiments were performed using SA‐E, SA‐K, or No‐SA conjugated with ICG or SA‐E conjugated with MMAE at a final concentration of 250 µM in filtered PBS (10 mM, pH 7.4) with or without human plasma or purified LPs or albumin. For analysis of SA‐E interactions with purified LPs, VLDL, LDL, HDL, and human serum albumin were diluted in filtered PBS to approximate concentrations found in 10% human plasma: 0.0025, 0.13, 0.05, and 5mg mL^−1, respectively. SA‐E was incubated with the purified LP/protein mixture for 30 min at 37 °C before injection. For analysis of plasma interactions, PAs or No‐SA were incubated in PBS containing 10% pooled human plasma for 30 min at 37 °C before injection. The total volume injected for all samples was 400 µL. All data was collected on an ÄKTA pure chromatography system using the following running conditions: size exclusion chromatography on a Superose 6 Increase 10/300 GL column with a column volume (CV) of 30 mL, pre‐column pressure limit of 5 MPa, delta‐column pressure limit of 2.6 MPa, flow rate of 0.75 mL min^−1, in 100% PBS. The sample running method included first an equilibration step before injection of the sample with 100% PBS for 0.5 CV, followed by sample application via 1 mL capillary loop in 100% PBS, and finished with a linear elution consisting of 2 CV collected in 1 mL fractions. The UV‐Vis detector wavelengths were 250, 280, and 700 nm to detect MMAE, all proteins/LPs, and ICG, respectively.

[2] = Fluorescence polarization of PA nanostructures; assay type: physicochemical; details: ICG‐conjugated SA‐E (10 mol%) mixed with MMAE‐conjugated SA‐E (90 mol%), 200 µM total; mean ± SEM
Method: ICG (10 mol%) containing PA micelles were prepared by mixing ICG‐conjugated PAs with unconjugated or MMAE‐conjugated PAs to achieve a final concentration of 20 µM ICG‐conjugated PAs and 200 µM of total PAs. Aliquots of 100 µL were added to a 96‐well plate (3 wells for each PA). Fluorescence polarization measurements were performed using a microplate reader (TECAN Spark 20 M). The corrected parallel intensity (I par) and perpendicular intensity (Iper) were used to calculate the fluorescence anisotropy (r) using the following equation: r = […].

CCCCCCCCCCCCCCCC(=O)NCC(=O)NCC(=O)NCC(=O)N[C@@H](Cc1c[nH]cn1)C(=O)N[C@@H](C)C(=O)N[C@@H](C)C(=O)N[C@@H](CC(N)=O)C(=O)NCC(=O)N[C@@H](CCC(=O)O)C(=O)N[C@@H](CCC(=O)O)C(=O)N[C@@H](CSC1CC(=O)N(CCCCCC(=O)N[C@H](C(=O)N[C@@H](CCCNC(N)=O)C(=O)Nc2ccc(COC(=O)N(C)[C@H](C(=O)N[C@H](C(=O)N(C)[C@@H]([C@@H](C)CC)[C@@H](CC(=O)N3CCC[C@H]3[C@H](OC)[C@@H](C)C(=O)N[C@H](C)[C@@H](O)c3ccccc3)OC)C(C)C)C(C)C)cc2)C(C)C)C1=O)C(=O)N[C@@H](CCC(=O)O)C(=O)O (some centres unmarked) [SA‐E‐MMAE] (I: Palmitoyl-GGGHAANGEECE-OH / II: V[Cit][PABC][NMeV]V[Dil][Dolaproine]-X1; linker I:11-II:N via Hexanoyl(6-succinimido-3yl); C-terminus assumed)
tumor growth reduction (4T1 tumor; 0.6 mg kg^−1 (based on MMAE) IV, 5 doses over 11 days, n = 5, versus free MMAE and PBS): ≈ 75%
body weight (4T1 tumor; 0.6 mg kg^−1 IV, 5 doses): no significant weight loss
overall survival (HCT‐116 tumor; 0.8 mg kg^−1 IV, 5 doses, n = 4, log‐rank): significantly improved the overall survival
effect on tumor size (HCT‐116 tumor; 0.8 mg kg^−1 of MMAE IV, days 11, 14, 17, 19, 21, all mice, n = 4): reduction in the tumor size
average tumor volume (HCT‐116 tumor; day 21, end of treatment): ≈ 150 mm^3
average tumor volume (HCT‐116 tumor; day 33): ≈ 40 mm^3
tumor‐free mice (HCT‐116 tumor; day 120): one mouse remained tumor‐free on day 120
reduction in the tumor volume (RG2 xenografts; n = 4, compared to the control): around 80%
body weight (RG2 xenografts; at the beginning of the therapy, overall tolerated): slight weight loss
plasma component bound (FPLC) [1]: assembled with HDL
fluorescence anisotropy of ICG in micelles [2]: 0.188 ± 0.002
